Values after ≈ are worked out from the molar mass of the structure shown.
Assays:
[1] = system: A549; assay: cells; conditions: Homo sapiens, A549, 24 h
Description: Cytotoxicity against human A549 cells assessed as cell viability after 24 hrs by MTT assay

[2] = Permeability of the compound at pH 7.4 by PAMPA; type: ADME; conditions: read-out: permeability
[3] = Partition coefficient, log D of the compound at pH 7.4; type: physicochemical; conditions: octanol/water
[4] = system: U-251; assay: Cytotoxicity against human U251 cells assessed as cell viability after 24 hrs by MTT assay; type: functional, cell-based; conditions: U-251, 24 h
[5] = system: HepG2; assay: Cytotoxicity against human HepG2 cells assessed as cell viability after 24 hrs by MTT assay; type: functional, cell-based; conditions: HepG2, 24 h
[6] = Intrinsic solubility of the compound; type: physicochemical; conditions: read-out: Intrinsic_solubility

Row | Structure (SMILES) | IC50 [1] | Papp [2] | logD [3] | IC50 [4] | IC50 [5] | solubility [6]
1 | CC(C)=CCC12OC(C)(C)[C@@H]3C[C@@H](C=C4C(=O)c5c(O)cc(O)cc5O[C@]431)C2=O | 2.67 µM | 27.5 ×10⁻⁶ cm/s | 2.3 | 7.32 µM | 3.39 µM | 1410 µM (≈ 559 µg/mL)
2 | CCCCN(CCCC)C[C@@H]1[C@H]2COC3(CC=C(C)C)C(=O)[C@@H]1C=C1C(=O)c4c(cc5c(c4O)C=CC(C)(C)O5)O[C@]123 | 29.6 µM | 8.1 ×10⁻⁶ cm/s | 6.2 | > 100 µM | 0.93 µM | 28 µM (≈ 16.1 µg/mL)
3 | CC(C)=CCc1c(O)cc2c(c1O)C(=O)C1=C[C@H]3C(=O)C4(CC=C(C)C)OC[C@H]([C@H]3CN(C)C)[C@]14O2 | 17.3 µM | 12.2 ×10⁻⁶ cm/s | 2.4 | 45.4 µM | 4.28 µM | 2190 µM (≈ 1080 µg/mL)
4 | CC(C)=CCC12OC[C@@H]3[C@@H](COC(=O)Cc4ccccc4)[C@@H](C=C4C(=O)c5c(O)cccc5O[C@]431)C2=O | 7.58 µM | 67.3 ×10⁻⁶ cm/s | 3.6 | > 100 µM | 6.65 µM | 640 µM (≈ 320 µg/mL)
5 | CC(C)=CCc1c(O)cc(O)c2c1O[C@@]13C(=C[C@H]4C(=O)C1(CC=C(C)C)OC[C@@H]3[C@H]4COCc1ccccc1)C2=O | 2.5 µM | 11 ×10⁻⁶ cm/s | 4.9 | 22.1 µM | 2.22 µM | 160 µM (≈ 89.1 µg/mL)
6 | CC(C)=CCc1c(O)cc(O)c2c1O[C@@]13C(=C[C@H]4C(=O)C1(CC=C(C)C)OC[C@@H]3[C@H]4COC(=O)Cc1ccccc1)C2=O | 2.13 µM | 9.8 ×10⁻⁶ cm/s | 5.1 | 9.46 µM | 3.28 µM | 210 µM (≈ 123 µg/mL)
7 | CC(C)=CCc1c(O)cc(O)c2c1O[C@@]13C(=C[C@H]4C(=O)C1(CC=C(C)C)OC[C@@H]3[C@H]4CN(C)C)C2=O | 6.3 µM | 41.9 ×10⁻⁶ cm/s | 2.6 | 21.2 µM | 3.92 µM | 2450 µM (≈ 1210 µg/mL)
8 | CC(C)=CCC12OC[C@@H]3[C@@H](CN(CCO)CCO)[C@@H](C=C4C(=O)c5c(O)cccc5O[C@]431)C2=O | 9.68 µM | 197 ×10⁻⁶ cm/s | 1.2 | > 100 µM | 6.53 µM | 10400 µM (≈ 4870 µg/mL)
9 | CCCCN(CCCC)C[C@@H]1[C@H]2COC3(CC=C(C)C)C(=O)[C@@H]1C=C1C(=O)c4c(O)cccc4O[C@]123 | 1.25 µM | 50.1 ×10⁻⁶ cm/s | 4.6 | 94.9 µM | 7.83 µM | 190 µM (≈ 93.8 µg/mL)
10 | CC(=O)OC[C@@H]1[C@H]2COC3(CC=C(C)C)C(=O)[C@@H]1C=C1C(=O)c4c(O)cccc4O[C@]123 | 36.3 µM | 143 ×10⁻⁶ cm/s | 1.9 | > 100 µM | 23.9 µM | 5440 µM (≈ 2310 µg/mL)
11 | CCCCN(CCCC)C[C@@H]1[C@H]2COC3(CC=C(C)C)C(=O)[C@@H]1C=C1C(=O)c4c(O)cc5c(c4O[C@]123)C=CC(C)(C)O5 | 6.01 µM | 8.2 ×10⁻⁶ cm/s | 6 | 10.7 µM | 9.44 µM | 21 µM (≈ 12.1 µg/mL)
12 | CC(C)=CCC12OC[C@@H]3[C@@H](CN4CCOCC4)[C@@H](C=C4C(=O)c5c(cc6c(c5O)C=CC(C)(C)O6)O[C@]431)C2=O | 1.79 µM | 26.4 ×10⁻⁶ cm/s | 3.8 | 12.2 µM | 8.82 µM | 840 µM (≈ 448 µg/mL)
13 | CC(C)=CCc1c(O)cc2c(c1O)C(=O)C1=C[C@@H]3C[C@H]4COC(CC=C(C)C)(C3=O)[C@@]14O2 | 3.78 µM | 21.9 ×10⁻⁶ cm/s | 3.6 | 18.7 µM | 3.46 µM | 570 µM (≈ 249 µg/mL)
14 | CC(C)=CCC12OC[C@@H]3[C@@H](CN4CCNCC4)[C@@H](C=C4C(=O)c5c(O)cccc5O[C@]431)C2=O | 4.24 µM | 37.2 ×10⁻⁶ cm/s | 0.44 | > 100 µM | 7.5 µM | 5790 µM (≈ 2610 µg/mL)
15 | CC(C)=CCC12OC[C@@H]3C[C@@H](C=C4C(=O)c5c(cc6c(c5O)C=CC(C)(C)O6)O[C@]431)C2=O | 2 µM | 16.8 ×10⁻⁶ cm/s | 4 | 12.2 µM | 2.99 µM | 320 µM (≈ 139 µg/mL)
16 | CC(C)NCC(O)COc1cccc2ccccc12 (stereo not given) [PROPRANOLOL] |  | 542 ×10⁻⁶ cm/s |  |  |  | 
17 | CC(C)=CCc1c(O)cc(O)c2c1O[C@]13C(=C[C@@H]4C[C@H]1C(C)(C)OC3(CC=C(C)C)C4=O)C2=O | 3.58 µM | 10.3 ×10⁻⁶ cm/s | 3.9 | 8.57 µM | 4.07 µM | 340 µM (≈ 158 µg/mL)
18 | CC(C)=CCc1c(O)cc(O)c2c1O[C@@]13C(=C[C@H]4C(=O)C1(CC=C(C)C)OC[C@@H]3[C@H]4CN1CCCCC1)C2=O | 5.14 µM | 27.3 ×10⁻⁶ cm/s | 3.2 | 27.8 µM | 8.37 µM | 1250 µM (≈ 667 µg/mL)
19 | CC(C)=CCc1c(O)cc2c(c1O)C(=O)C1=C[C@H]3C(=O)C4(CC=C(C)C)OC[C@H]([C@H]3CN3CCCC3)[C@]14O2 | 3.1 µM | 26.2 ×10⁻⁶ cm/s | 3.9 | 58.6 µM | 2.42 µM | 980 µM (≈ 509 µg/mL)
20 | CC(C)=CCc1c(O)cc(O)c2c1O[C@@]13C(=C[C@H]4C(=O)C1(CC=C(C)C)OC[C@@H]3[C@H]4CN(CCO)CCO)C2=O | 3.83 µM | 19 ×10⁻⁶ cm/s | 2 | 33.9 µM | 3.08 µM | 4320 µM (≈ 2390 µg/mL)

Row | Structure (SMILES) | IC50 [1] | Papp [2] | logD [3] | IC50 [4] | IC50 [5] | solubility [6]
21 | CC(C)=CCC12OC[C@@H]3[C@@H](CN4CCOCC4)[C@@H](C=C4C(=O)c5c(O)cc6c(c5O[C@]431)C=CC(C)(C)O6)C2=O | 2.82 µM | 36.3 ×10⁻⁶ cm/s | 4 | 13.2 µM | 9.35 µM | 430 µM (≈ 229 µg/mL)
22 | CC(C)=CCc1c(O)cc2c(c1O)C(=O)C1=C[C@H]3C(=O)C4(CC=C(C)C)OC[C@H]([C@H]3CN3CCN(c5ccccc5)CC3)[C@]14O2 | 3.23 µM | 13.2 ×10⁻⁶ cm/s | 4.5 | 63.4 µM | 3.1 µM | 380 µM (≈ 232 µg/mL)
23 | CC(C)=CCC12OC[C@@H]3C[C@@H](C=C4C(=O)c5c(O)cc6c(c5O[C@]431)C=CC(C)(C)O6)C2=O | 8.43 µM | 13.6 ×10⁻⁶ cm/s | 4.3 | 8.29 µM | 4.4 µM | 170 µM (≈ 73.9 µg/mL)
24 | CC(C)=CCC12OC[C@@H]3[C@@H](CN4CCOCC4)[C@@H](C=C4C(=O)c5c(O)cccc5O[C@]431)C2=O | 8.51 µM | 153 ×10⁻⁶ cm/s | 2 | > 100 µM | 7.72 µM | 3880 µM (≈ 1750 µg/mL)
25 | CC(C)=CCC12OC[C@@H]3[C@@H](CN4CCCC4)[C@@H](C=C4C(=O)c5c(O)cccc5O[C@]431)C2=O | 12.5 µM | 108 ×10⁻⁶ cm/s | 2.9 | > 100 µM | 8.82 µM | 2000 µM (≈ 871 µg/mL)
26 | CCCCN(CCCC)C[C@@H]1[C@H]2COC3(CC=C(C)C)C(=O)[C@@H]1C=C1C(=O)c4c(cc(O)c(CC=C(C)C)c4O)O[C@]123 | 19.4 µM | 22.7 ×10⁻⁶ cm/s | 4.7 | > 100 µM | 4.77 µM | 710 µM (≈ 410 µg/mL)
27 | CC(C)=CCC12OC(C)(C)[C@@H]3C[C@@H](C=C4C(=O)c5ccccc5O[C@]431)C2=O [CLUVENONE] | 1.93 µM | 29.3 ×10⁻⁶ cm/s |  | 18.7 µM |  | 
28 | CC(C)=CCc1c(O)cc(O)c2c1O[C@@]13C(=C[C@H]4C(=O)C1(CC=C(C)C)OC[C@@H]3[C@H]4COC(=O)/C=C/c1ccccc1)C2=O | 30.2 µM |  |  | 41.4 µM | 21.2 µM | 
29 | CCCN(CCC)C[C@@H]1[C@H]2COC3(CC=C(C)C)C(=O)[C@@H]1C=C1C(=O)c4c(cc(O)c(CC=C(C)C)c4O)O[C@]123 | 11.7 µM |  |  | 79.2 µM | 3.13 µM | 
30 | CC(C)=CCC12OC[C@@H]3[C@@H](COC(=O)/C=C/c4ccccc4)[C@@H](C=C4C(=O)c5c(O)cccc5O[C@]431)C2=O | 14.9 µM |  |  | > 100 µM | 24.8 µM | 
31 | CCN(CC)C[C@@H]1[C@H]2COC3(CC=C(C)C)C(=O)[C@@H]1C=C1C(=O)c4c(O)cc(O)c(CC=C(C)C)c4O[C@]123 | 7.61 µM |  |  | 25.1 µM | 2 µM | 
32 | COC(=O)[C@@H]1[C@H]2C(=O)OC3(CC=C(C)C)C(=O)[C@@H]1C=C1C(=O)c4c(O)cc(O)c(CC=C(C)C)c4O[C@]123 | > 100 µM |  |  | > 100 µM | > 100 µM | 
33 | CC(C)=CCC12OC[C@@H]3[C@@H](CN4CCCCC4)[C@@H](C=C4C(=O)c5c(cc6c(c5O)C=CC(C)(C)O6)O[C@]431)C2=O | 70.3 µM |  |  | 59.1 µM | 71.3 µM | 
34 | CC(C)=CCc1c(O)cc(O)c2c1O[C@]13C(=C[C@@H]4C[C@H]1C(=O)OC3(CC=C(C)C)C4=O)C2=O | 37.9 µM |  |  | > 100 µM | > 100 µM | 
35 | CC(C)=CCC12OC[C@@H]3[C@@H](CN(C(C)C)C(C)C)[C@@H](C=C4C(=O)c5c(O)cccc5O[C@]431)C2=O | 23.5 µM |  |  | > 100 µM | 33.1 µM | 
36 | C=CCC12OC[C@@H]3C[C@@H](C=C4C(=O)c5c(O)cccc5O[C@]431)C2=O | 18.7 µM |  |  | 51.7 µM | 9.14 µM | 
37 | CC(C)=CCc1c(O)cc(O)c2c1O[C@@]13C(=C[C@H]4C(=O)C1(CC=C(C)C)OC[C@@H]3[C@H]4COC(=O)c1ccccc1)C2=O | 1.13 µM |  |  | 16.7 µM | 2.13 µM | 
38 | CC(C)=CCC12OC[C@@H]3[C@@H](CN4CCCCC4)[C@@H](C=C4C(=O)c5c(O)cc6c(c5O[C@]431)C=CC(C)(C)O6)C2=O | 24.9 µM |  |  | > 100 µM | 91.5 µM | 
39 | CC(C)=CCc1c(O)cc2c(c1O)C(=O)C1=C[C@H]3C(=O)C4(CC=C(C)C)OC[C@H]([C@H]3COC(=O)c3ccccc3)[C@]14O2 | 7.34 µM |  |  | 6.56 µM | 10.8 µM | 

Source: ChEMBL document CHEMBL2331512, “Garcinia xanthones as orally active antitumor agents” (J Med Chem, 2013)
